In one test the test system is H9c2. Description: cardiomyocyte survival under oxidative or metabolic stress – cell-based, panel, H9c2 and HL-1, H2O2, 2-deoxyglucose, ATP luminescence, SAR follow-up (AID 651642).
Another test has as its system HL-1. The test is described as above.
Where [1] appears, read: H9c2/HL-1 cardiomyocyte 2-deoxyglucose damage, mean of runs, with 2-deoxyglucose, mean IC50 across panel.
[2] abbreviates: H9c2/HL-1 cardiomyocyte 2-deoxyglucose damage, run 1, with 2-deoxyglucose.
The mark [3] stands for this setting: H9c2/HL-1 cardiomyocyte 2-deoxyglucose damage, run 2, with 2-deoxyglucose.
Setting [4] is: H9c2/HL-1 cardiomyocyte 2-deoxyglucose damage, run 3, with 2-deoxyglucose.
Setting [5] is: H9c2/HL-1 cardiomyocyte 2-deoxyglucose damage, run 4, with 2-deoxyglucose.
Setting [6] is: H9c2/HL-1 cardiomyocyte H2O2 oxidative damage, mean of runs, with H2O2, mean IC50 across panel.
Where [7] appears, read: H9c2/HL-1 cardiomyocyte H2O2 oxidative damage, run 1, with H2O2.
Setting [8] is: H9c2/HL-1 cardiomyocyte H2O2 oxidative damage, run 2, with H2O2.
[9] abbreviates: H9c2/HL-1 cardiomyocyte H2O2 oxidative damage, run 3, with H2O2.
Setting [10] is: H9c2/HL-1 cardiomyocyte H2O2 oxidative damage, run 4, with H2O2.

Here are results for nine molecules from PubChem BioAssay AID651642 (Sanford-Burnham Center for Chemical Genomics, 2012).

Take `COc1cc(-c2cc(C(=O)NCC(=O)Nc3cccc(C(C)=O)c3)c3cc(Br)ccc3n2)cc(OC)c1OC`: the IC50 – broadly, the midpoint of a concentration-inhibition curve – turned out to be 6.44 µM in the test with H9c2 (setting [1]); 8.22 µM in the test with H9c2 (setting [2]); 8.41 µM in the test on H9c2 (setting [3]); 4.43 µM in the test on H9c2 (setting [4]); 4.71 µM in the test with H9c2 (setting [5]); 1.26 µM in the test on H9c2 (setting [6]). Besides, the IC50 is 1.48 µM in the test with H9c2 (setting [7]); 1.49 µM with H9c2 (setting [8]); 1.02 µM with H9c2 (setting [9]); 1.06 µM with H9c2 (setting [10]); 3.83 µM in the test with HL-1 (setting [1]); 2.44 µM with HL-1 (setting [2]). In addition, the IC50 with HL-1 (setting [3]) is 4.64 µM; in the test with HL-1 (setting [4]), 3.4 µM; in the test on HL-1 (setting [5]), 4.85 µM; in the test with HL-1 (setting [6]), 3.34 µM; in the test on HL-1 (setting [7]) it was 3.56 µM; in the test on HL-1 (setting [8]), 3.69 µM. The IC50 in the test on HL-1 (setting [9]) was 2.7 µM; in the test with HL-1 (setting [10]), 3.41 µM.

For the molecule `CCOC(=O)c1cccc(NC(=O)CNC(=O)c2cc(-c3cc(OC)c(OC)c(OC)c3)nc3ccccc23)c1`, the IC50 was 8.17 µM with H9c2 (setting [2]); 9.67 µM in the test with H9c2 (setting [3]); above 79 µM in the test on H9c2 (setting [4]); above 79 µM in the test with H9c2 (setting [5]); 2.07 µM with H9c2 (setting [7]); 2.14 µM in the test with H9c2 (setting [8]). In addition, the IC50 is above 79 µM with H9c2 (setting [9]); above 79 µM with H9c2 (setting [10]); 2.08 µM in the test on HL-1 (setting [2]); 2.42 µM with HL-1 (setting [3]); above 79 µM in the test on HL-1 (setting [4]); above 79 µM in the test with HL-1 (setting [5]). The IC50 in the test with HL-1 (setting [7]) is 9.1 µM; with HL-1 (setting [8]) it was 17.9 µM; in the test on HL-1 (setting [9]), above 79 µM; with HL-1 (setting [10]) it was above 79 µM.

Regarding `COc1cc(-c2cc(C(=O)NCC(=O)Nc3ccc(C(C)=O)cc3)c3cc(F)ccc3n2)cc(OC)c1OC`, the IC50 in the test with H9c2 (setting [1]) is above 79 µM; with H9c2 (setting [2]) it was above 79 µM; in the test on H9c2 (setting [3]), above 79 µM; in the test on H9c2 (setting [4]) it was above 79 µM; with H9c2 (setting [5]) it was above 79 µM; in the test on H9c2 (setting [7]), 1.54 µM. Also, the IC50 is 2.4 µM in the test on H9c2 (setting [8]); above 79 µM in the test on H9c2 (setting [9]); above 79 µM with H9c2 (setting [10]); 2.6 µM in the test on HL-1 (setting [2]); 3.39 µM in the test on HL-1 (setting [3]); above 79 µM in the test on HL-1 (setting [4]). Besides, the IC50 in the test with HL-1 (setting [5]) is above 79 µM; with HL-1 (setting [6]), 4.71 µM; in the test with HL-1 (setting [7]), 3.18 µM; in the test on HL-1 (setting [8]), 10.4 µM; in the test with HL-1 (setting [9]), 0.441 µM; in the test with HL-1 (setting [10]) it was 4.84 µM.

In the case of `COc1ccc2c(c1OC)C(=O)N1c3ccccc3C(=O)N(Cc3ccc(F)cc3)C21` (configuration not stated), the IC50 in the test with H9c2 (setting [1]), in the test with H9c2 (setting [2]), with H9c2 (setting [3]), in the test with H9c2 (setting [4]), with H9c2 (setting [5]) and in the test on H9c2 (setting [7]) was above 79 µM each time. The IC50 in the test with H9c2 (setting [8]) was 8.03 µM; in the test on H9c2 (setting [9]), above 79 µM; with H9c2 (setting [10]) it was above 79 µM; with HL-1 (setting [1]) it was 19 µM; in the test on HL-1 (setting [2]), 6.14 µM; with HL-1 (setting [3]) it was 10.7 µM. Further, the IC50 is 17.7 µM in the test on HL-1 (setting [4]); 41.3 µM in the test on HL-1 (setting [5]); above 79 µM with HL-1 (setting [6]); above 79 µM in the test with HL-1 (setting [7]); above 79 µM in the test with HL-1 (setting [8]); above 79 µM with HL-1 (setting [9]). The IC50 with HL-1 (setting [10]) is above 79 µM.

With `COc1cc(-c2cc(C(=O)Nc3cccc(C(=O)N(C)C)c3)c3ccccc3n2)cc(OC)c1OC`, the IC50 in the test on H9c2 (setting [1]), in the test with H9c2 (setting [2]), in the test with H9c2 (setting [3]), in the test with H9c2 (setting [4]), with H9c2 (setting [5]) and with H9c2 (setting [7]) was above 79 µM throughout. Further, the IC50 in the test with H9c2 (setting [8]) was 3.17 µM; in the test with H9c2 (setting [9]), 3.3 µM; in the test on H9c2 (setting [10]), 3.78 µM; in the test on HL-1 (setting [1]), 16.5 µM; with HL-1 (setting [2]) it was 6.9 µM; with HL-1 (setting [3]) it was 7.56 µM. For the same molecule, the IC50 was 24.5 µM in the test on HL-1 (setting [4]); 26.9 µM in the test with HL-1 (setting [5]); 9.38 µM in the test with HL-1 (setting [6]); 7.37 µM with HL-1 (setting [7]); 12.8 µM with HL-1 (setting [8]); 7.61 µM in the test on HL-1 (setting [9]). The IC50 in the test on HL-1 (setting [10]) amounted to 9.78 µM.

With `COc1cc(-c2cc(C(=O)NCC(=O)Nc3ccc(C(C)=O)cc3)c3ccccc3n2)cc(OC)c1OC`, the half-inhibitory concentration (IC50) in the test on H9c2 (setting [2]) is above 79 µM; in the test with H9c2 (setting [3]) it was above 79 µM; in the test on H9c2 (setting [4]), 6.74 µM; in the test with H9c2 (setting [5]) it was 8.41 µM; with H9c2 (setting [7]), above 79 µM; in the test with H9c2 (setting [8]) it was above 79 µM. The IC50 with H9c2 (setting [9]) was 1.62 µM; in the test on H9c2 (setting [10]), 1.71 µM; with HL-1 (setting [2]) it was above 79 µM; in the test with HL-1 (setting [3]), above 79 µM; with HL-1 (setting [4]) it was 6.28 µM; in the test with HL-1 (setting [5]) it was 7.65 µM. Besides, the IC50 in the test on HL-1 (setting [7]) is above 79 µM; in the test with HL-1 (setting [8]) it was above 79 µM; in the test with HL-1 (setting [9]), 7.43 µM; with HL-1 (setting [10]), 9.32 µM.

In the case of `COc1ccc2c(c1OC)C(=O)N1c3ccccc3C(=O)N(Cc3cccc(C)c3)C21` (configuration not stated), the IC50 in the test with H9c2 (setting [1]) is above 79 µM; in the test on H9c2 (setting [2]), above 79 µM; with H9c2 (setting [3]) it was above 79 µM; in the test with H9c2 (setting [4]) it was above 79 µM; with H9c2 (setting [5]), above 79 µM; with H9c2 (setting [7]), 5.63 µM. Further, the IC50 is 6 µM with H9c2 (setting [8]); above 79 µM with H9c2 (setting [9]); above 79 µM in the test on H9c2 (setting [10]); 10.6 µM with HL-1 (setting [1]); 7.52 µM with HL-1 (setting [2]); 8.41 µM in the test on HL-1 (setting [3]). The IC50 with HL-1 (setting [4]) was 12 µM; in the test on HL-1 (setting [5]), 14.6 µM; in the test with HL-1 (setting [6]), above 79 µM; in the test on HL-1 (setting [7]), above 79 µM; in the test on HL-1 (setting [8]), above 79 µM; in the test on HL-1 (setting [9]) it was above 79 µM. For the same molecule, the half-maximal inhibitory concentration (IC50) in the test with HL-1 (setting [10]) is above 79 µM.

With `COc1ccc2c(c1OC)C(=O)N1c3ccccc3C(=O)N(Cc3ccc(C)cc3)C21` (configuration not stated), the concentration for half-maximal inhibition (IC50) with H9c2 (setting [1]), with H9c2 (setting [2]), in the test on H9c2 (setting [3]), with H9c2 (setting [4]), with H9c2 (setting [5]) and with H9c2 (setting [7]) was above 79 µM in each case. For the same molecule, the IC50 in the test with H9c2 (setting [8]) is 6.9 µM; with H9c2 (setting [9]) it was above 79 µM; in the test with H9c2 (setting [10]) it was above 79 µM; in the test with HL-1 (setting [2]), 11.4 µM; in the test with HL-1 (setting [3]) it was 23.3 µM; in the test with HL-1 (setting [4]), above 79 µM. Also, the IC50 with HL-1 (setting [5]), in the test with HL-1 (setting [7]), with HL-1 (setting [8]), in the test on HL-1 (setting [9]) and in the test on HL-1 (setting [10]) was above 79 µM each time.

For `CCOC(=O)c1cccc(NC(=O)c2cc(-c3cc(OC)c(OC)c(OC)c3)nc3ccc(F)cc23)c1`, the IC50 was above 79 µM with H9c2 (setting [1]); above 79 µM in the test on H9c2 (setting [2]); above 79 µM in the test on H9c2 (setting [3]); above 79 µM in the test with H9c2 (setting [4]); above 79 µM in the test on H9c2 (setting [5]); 9 µM in the test with H9c2 (setting [7]). Further, the IC50 in the test with H9c2 (setting [8]) was 10.7 µM; with H9c2 (setting [9]) it was above 79 µM; in the test with H9c2 (setting [10]) it was 3.82 µM; with HL-1 (setting [2]), 3.32 µM; with HL-1 (setting [3]), 4.09 µM; in the test with HL-1 (setting [4]) it was above 79 µM. Further, the IC50 with HL-1 (setting [5]) was above 79 µM; in the test with HL-1 (setting [6]), 4.11 µM; with HL-1 (setting [7]) it was 2.77 µM; in the test on HL-1 (setting [8]) it was 7.9 µM; in the test with HL-1 (setting [9]), 2.4 µM; in the test on HL-1 (setting [10]) it was 3.37 µM.
